The text below walks through data of patent US4668674A, “(+)-6-chloro-5,10-dihy dro-5-[(1-methyl-4-piperidinyl)-acetyl]-11H-dibenzo[b,][1,4]diazepin-11-o ne, the isolation thereof and its use as a pharmaceutical material” (Dr. Karl Thomae GmbH, priority 1985, dated 1987).

For data set [1], the system named is secretion of gastric acid. Put plainly: Anti-ulcerative effect, inhibition of gastric acid secretion and effect on other gastro-intestinal diseases (general statement). The format is in vivo. Particulars: for physiological/biological effectiveness: statement in words.
Data set [2] relates to volume and total acid secretion. The data set can be described thus: Effect on rats after ligature of the pylorus (gastric juice volume and total acid). The format is in vivo, Male Wistar rats. Particulars: rat, i.v.; for ED50 value: given immediately before pylorus ligature, 2 hours, 120 min. Here is the method: Effect on rats after ligature of the pylorus
Male Wistar rats (weighing between 100 and 125 g) which had fasted for 24 hours but had free access to water was used. The rats were divided up into groups of 10 animals. The rats were anaesthetised with ether and the abdominal cavity was opened up by longitudinal cutting and the pylorus was tied off. Before ligature of the pylorus, the substances dissolved in saline solution were administered intravenously in metered doses (0.1 ml/100 g of body weight), the intravenous administration was carried out immediately before ligature of the pylorus; control animals were given only the saline solution. Two hours after the ligature the animals were killed and the stomachs were carefully removed. The stomach contents were collected and centrifuged for 15 minutes at 4000 rpm, then the supernatant was separated off in order to determine the volume of gastric juices. Using a pH measuring apparatus (I.T.T. Radiometer PHM 62) the acidity was measured by titration to pH 7 of 1 ml samples of the gastric juices.
The total acid was calculated from the product of the measured volume and acidity (microequivalent.ml) and expressed as microequivalents over 2 or 4 hours. The data obtained from the individual pretreated rats were compared with the average values obtained from the control groups and expressed as the percentage deviation. The percentage values were transformed into probits and subjected to linear regression analysis in order to determine the ED50 values for volume and total acid secretion, whilst observing 95% confidence limits.

The nature of the next data set: Racemisation Test. The format is physicochemical.
The conditions of data set [3]: ambient temperature; Arzneim.-Forsch./Drug Res. 34(II), 8, 849-859 (1984); cited from earlier work.
The mark [4] stands for this setting: pH 1 to 9, water, glycol, melt, up to 150° C., fifteen minutes.

As to `CN1CCC(CC(=O)N2c3ccccc3C(=O)Nc3cccc(Cl)c32)CC1` [(-) form], the “quantity required to achieve the same results” value in data set [1] ((-) form, to achieve the same results) is listed as “at least 50 times”. For the same compound, the “deviation from the average values of untreated control groups” value in data set [2] (3 mg/kg) was 1.6%. In data set [2], the ED50 value is recorded as more than 3 mg/kg.

`CN1CCC(CC(=O)N2c3ccccc3C(=O)Nc3cccc(Cl)c32)CC1` [(+) form, (+)-6-Chloro-5,10-dihydro-5-[(1-methyl-4-piperidinyl)-acetyl]-11H-dibenzo[b,e][1,4]diazepin-11-one]: the “dosage needed to achieve the same results, relative to the mixture of enantiomers” value in data set [1] (compared with the mixture of enantiomers) is “approximately only half the dosage”. Besides, in data set [1] (particularly low bowel distress symptoms), the “effect on various other diseases of the gastro-intestinal tract” value was “favourable effect on various other diseases of the gastro-intestinal tract”. Also, in data set [1], the physiological/biological effectiveness result is given as “physiologically highly effective”. In addition, the physiological/biological effectiveness result in data set [1] (listed as Ia) is recorded as “biologically effective form”. Besides, in data set [1] (unlike the (-) form), the anti-ulcerative effect result is recorded as “Powerful anti-ulcerative effect” and the “effect on the secretion of gastric acid” value was “inhibitory effect on the secretion of gastric acid”. Besides, the ED50 value in data set [2] came out at 0.18 mg/kg. In data set [2] (conclusion in words), the “activity in the pylorus ligature experiment” value is “the form which carries the activity”. Moreover, in the data set “Racemisation Test” (setting [4]), the “formation of (-) enantiomer (HPLC)” value is on record as “no (-) enantiomer had formed”, the “optical rotation on heating” value is reported as “remained constant” and the racemisation entry is recorded as “no racemisation”.

For `CN1CCN(CC(=O)N2c3ccccc3C(=O)Nc3cccnc32)CC1` [pirenzepine], in data set [3], the “interconversion of enantiomeric forms” value is given as “rapidly interconvert”.

Regarding `CN1CCC(CC(=O)N2c3ccccc3C(=O)Nc3cccc(Cl)c32)CC1` [formula I, 6-chloro-5,10-dihydro-5-[(1-methyl-4-piperidinyl)-acetyl]-11H-dibenzo[b,e][1,4]diazepin-11-one], the “stability of enantiomeric forms” value in the data set “Racemisation Test” (ambient temperature) is on record as “stable at ambient temperature”.
